Experimental data taken from patent US20140094451A1, “PREVENTIVE OR REMEDY FOR GLAUCOMA” (Kowa Co., Ltd., priority 2005, published 2014).

Experiments:
rabbits with normal IOP = details: cited from earlier work
Japanese white rabbits = test: Ocular hypotensive effect (IOP change from initial IOP) after instillation, alone or in combination; format: in vivo; details: FIG. 2; single drug treatment groups; instillation 50 μL, male JW rabbits
Procedure: To examine usefulness of combination use of a Rho kinase inhibitor and an α1 blocker, the ocular hypotensive effects were compared by administering either of these drugs alone or both in combination to laboratory animals. (S)-(−)-1-(4-fluoro-5-isoquinolinesulfonyl)-2-methyl-1,4-homopiperazine-hydrochloride dihydrate was dissolved in physiological saline, and the solution was neutralized (pH 6.0) by adding sodium dihydrogenphosphate and sodium hydroxide to prepare a (S)-(−)-1-(4-fluoro-5-isoquinolinesulfonyl)-2-methyl-1,4-homopiperazine solution at a desired concentration. The commercially available “Eril® S Injection” (Asahi Kasei Pharma) was used as it was. The commercially available “Detantol 0.01% Ophthalmic Solution” (Santen Pharmaceutical Co., Ltd.) was used as it was. The ocular hypotensive effect was examined after the combination use of (S)-(−)-1-(4-fluoro-5-isoquinolinesulfonyl)-2-methyl-1,4-homopiperazine and bunazosin. As a control, the ocular hypotensive effect was also examined after the use of bunazosin alone or (S)-(−)-1-(4-fluoro-5-isoquinolinesulfonyl)-2-methyl-1,4-homopiperazine alone. Similarly, the ocular hypotensive effect was examined after the combination use of hexahydro-1-(5-isoquinolinesulfonyl)-1H-1,4-diazepine and bunazosin. […]

Compound | time after instillation from which IOP is lowered (rabbits with normal IOP) [h] | time of maximum ocular hypotensive effect after instillation (rabbits with normal IOP) [h] | maximum IOP reduction (rabbits with normal IOP; instillation, concentration of 0.10) [mmHg] | time after instillation when the ocular hypotensive effect disappeared (Japanese white rabbits) [h]
C[C@@H](N)c1ccc(C(=O)Nc2ccnc3[nH]ccc23)cc1 [Y-39983] | 1 | 2 to 4 | 15 | 
O=S(=O)(c1cccc2cnccc12)N1CCCNCC1 [hexahydro-1-(5-isoquinolinesulfonyl)-1H-1,4-diazepine] |  |  |  | 5
CCCC(=O)N1CCCN(c2nc(N)c3cc(OC)c(OC)cc3n2)CC1 [bunazosin] |  |  |  | 5
